From patent US20190161516A1, “PROTEASOME INHIBITORS” (University of Kentucky Research Foundation, priority 2017, published 2019)

What was measured:
LMP7/β5i = molecular target: T1, LMP7/β5i (Homo sapiens, UniProt P20618+P28062); assay: Proteasome activity assay, purified 20S proteasome, Ac-ANW-AMC; format: biochemical
T1 construct: purchased R&D Systems
Protocol: (§1) Purified 20S human proteasomes (CP and IP, R&D Systems) were used to assess the in vitro inhibition of proteasome catalytic activity by LMP2 inhibitors. […] Reactions were initiated by the addition of fluorogenic substrates containing the AMC (7-amino-4-methylcoumarin) group. Specifically, the following substrates were used: Suc-LLVY-AMC (CT-L activity, 100 μM), Ac-PAL-AMC (LMP2, 100 μM), Ac-WLA-AMC (β5, 20 μM), Ac-nLPnLD-AMC (β1,100 μM), Ac-RLR-AMC (β2/2i, 20 μM), and Ac-ANW-AMC (β5i, 100 μM). The fluorescence of liberated AMC was measured over a period of 90 min at 360 and 460 nm on a SpectraMax M5 fluorescence plate reader (Molecular Devices). For the proteasome activity of brain tissues isolated from AD mice, tissues were homogenized in RIPA buffer (50 mM Tris Cl, pH 7.4, 150 mM NaCl, 5 mM EDTA, 1% Nonidet P-40, 1% sodium deoxycholate, 0.1% SDS, 1% aprotinin, 50 mM NaF) and sonicated. Samples were centrifuged for 40 min at 14,000×g (4° C.). Protein concentration was determined using the Bradford Assay according to the manufacturer's protocol. Finally, samples were loaded onto a 96-well plate followed by the addition of the substrate (Ac-PAL-AMC) at 37° C. Fluorescence was recorded for 90 min using a Synergy-HT (Bio Tek) plate reader.

X/β5 = molecular target: T2, X/β5 (Homo sapiens, UniProt P20618+P28074); assay: Proteasome activity assay, purified 20S proteasome, Ac-WLA-AMC; format: biochemical
T2 construct: purchased R&D Systems
Protocol: Purified 20S human proteasomes (CP and IP, R&D Systems) were used to assess the in vitro inhibition of proteasome catalytic activity by LMP2 inhibitors. In our 96-well format assays involving a 100 μL total volume, 20S proteasomes (0.5 μg/mL) were incubated with inhibitors or reference compounds (e.g., carfilzomib) in assay buffer (20 mM Tris-HCl, 0.5 mM EDTA, 0.035% SDS) at room temperature for 30 min. Reactions were initiated by the addition of fluorogenic substrates containing the AMC (7-amino-4-methylcoumarin) group. Specifically, the following substrates were used: Suc-LLVY-AMC (CT-L activity, 100 μM), Ac-PAL-AMC (LMP2, 100 μM), Ac-WLA-AMC (β5, 20 μM), Ac-nLPnLD-AMC (β1,100 μM), Ac-RLR-AMC (β2/2i, 20 μM), and Ac-ANW-AMC (β5i, 100 μM). The fluorescence of liberated AMC was measured over a period of 90 min at 360 and 460 nm on a SpectraMax M5 fluorescence plate reader (Molecular Devices). For the proteasome activity of brain tissues isolated from AD mice, tissues were homogenized in RIPA buffer (50 mM Tris Cl, pH 7.4, 150 mM NaCl, 5 mM EDTA, 1% Nonidet P-40, 1% sodium deoxycholate, 0.1% SDS, 1% aprotinin, 50 mM NaF) and sonicated. Samples were centrifuged for 40 min at 14,000×g (4° C.). Protein concentration was determined using the Bradford Assay according to the manufacturer's protocol. […] Fluorescence was recorded for 90 min using a Synergy-HT (Bio Tek) plate reader.

[1] = system: APPsw transgenic mouse (Tg2576) and LPS-induced mice (ICR strain); assay: Morris water maze test in AD mouse models; format: in vivo; settings: FIG. 12A-12D
Protocol: These two compounds were used to investigate the impacts of LMP2 inhibition on cognitive deficits in two animal models of human Alzheimer's disease (AD). In these AD models, AD develops by Aβ deposition (APPsw transgenic mouse) or lipopolysaccharide (LPS)-induced neuroinflammation. For the APPsw transgenic model, also known as Tg2576, 10-month old APPsw mice were treated i.p. with LMP2 inhibitors twice a week for 3 weeks. […] Once treatments were finished, Morris water maze test was performed. All mice were trained for three times a day for 5 days before the test. The escape latency and distance traveled were recorded on a daily-basis over a 5-day period. […] This supports that the efficacy of LMP2 inhibitors is mediated through LMP2 inhibition. One day after the completion of Morris water maze test, the ability of mouse to maintain memory was evaluated by probe trials. […] Sequentially, a step-through latency test was performed a day after the probe trial. […]
The learning trials were conducted over 5 days, with 4 trials per day, with three randomized starting points. […] Swimming pattern of each mouse was monitored and recorded by a camera mounted above the center of the pool, and the escape latency, escape distance and swimming speed were assessed by the SMART-LD program (Panlab, Spain). […]

LMP2/β1i [2] = molecular target: T3, LMP2/β1i (Homo sapiens, UniProt P28065+P40306); assay: Proteasome inhibitory activity, subunit-specific cell lysate IC50, LMP2; format: biochemical; parameters: Subunit-Specific Cell lysate IC50 (μM); endogenous in cells; settings: read-out: Subunit-Specific Cell lysate IC50, LMP2 (β1i)
[3] = system: Chymotrypsin-like activity (β5/β5i); assay: Proteasome inhibitory activity, subunit-specific cell lysate IC50, chymotrypsin-like activity; format: biochemical
LMP2/β1i [4] = molecular target: T3, LMP2/β1i; assay: Proteasome activity assay, purified 20S proteasome, Ac-PAL-AMC; format: biochemical; parameters: purchased R&D Systems
Protocol: as §1

IC50 (LMP7/β5i): > 10000 nM | IC50 (X/β5): > 10000 nM | IC50 (LMP2/β1i [2]): 80 nM | IC50 [3]: > 10000 nM | IC50 (LMP2/β1i [4]): 70 nM
SMILES: CC(C)C[C@H](NC(=O)[C@H](Cc1ccccc1)NC(=O)[C@@H]1CCCN1C(=O)CNC(=O)c1cnccn1)C(=O)[C@@]1(C)CO1 [Analogue 16]
cognitive deficits in the APPsw mice [1]: ameliorates cognitive deficits
